{"source": "patent US20140128357A1", "about": "“METHODS OF PRODUCING AND USING BRASSINOSTEROIDS TO PROMOTE GROWTH, REPAIR AND MAINTENANCE OF SKELETAL MUSCLE AND SKIN” (Rutgers University, priority 2010, published 2014)", "target": "T1, rat nuclear androgen receptor (Rattus norvegicus, UniProt P15207)", "T1 construct": "MDS Pharma Services (Taiwan), the contract laboratory that ran the assay", "T1 sequence (P15207 1-902)": "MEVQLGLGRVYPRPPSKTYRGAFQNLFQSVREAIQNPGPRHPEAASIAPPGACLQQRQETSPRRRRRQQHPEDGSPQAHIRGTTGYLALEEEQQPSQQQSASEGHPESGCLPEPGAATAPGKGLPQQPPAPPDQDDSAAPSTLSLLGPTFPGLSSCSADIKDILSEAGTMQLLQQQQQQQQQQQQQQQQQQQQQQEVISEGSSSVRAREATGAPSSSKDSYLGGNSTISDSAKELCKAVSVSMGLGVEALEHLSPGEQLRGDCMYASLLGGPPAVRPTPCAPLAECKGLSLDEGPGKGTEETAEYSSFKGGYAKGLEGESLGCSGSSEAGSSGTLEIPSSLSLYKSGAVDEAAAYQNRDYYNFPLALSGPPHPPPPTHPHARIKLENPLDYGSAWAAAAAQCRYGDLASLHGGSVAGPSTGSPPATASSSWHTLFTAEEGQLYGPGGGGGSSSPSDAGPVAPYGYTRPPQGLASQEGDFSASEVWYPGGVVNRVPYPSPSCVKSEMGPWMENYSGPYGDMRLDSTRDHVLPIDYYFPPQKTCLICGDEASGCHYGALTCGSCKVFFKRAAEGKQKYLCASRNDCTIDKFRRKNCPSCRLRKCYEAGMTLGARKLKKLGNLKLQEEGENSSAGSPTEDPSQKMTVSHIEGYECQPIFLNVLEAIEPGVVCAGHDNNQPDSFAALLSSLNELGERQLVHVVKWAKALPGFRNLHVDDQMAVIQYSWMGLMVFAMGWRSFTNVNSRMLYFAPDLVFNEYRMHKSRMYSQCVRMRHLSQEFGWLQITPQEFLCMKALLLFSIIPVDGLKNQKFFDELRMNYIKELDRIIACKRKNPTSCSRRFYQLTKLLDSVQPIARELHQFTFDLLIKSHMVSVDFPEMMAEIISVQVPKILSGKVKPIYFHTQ", "test": "Rat androgen receptor binding, [3H]-mibolerone displacement", "conditions": "0.01 μM up to 10 μM", "procedure": "Rat androgen receptor binding assays were performed by MDS Pharma Services (Taiwan) as described elsewhere (Chang et al., J. Steroid Biochem. 27:123-131, 1987), incorporated herein by reference."}
{"smiles": "CC[C@@H](C(C)C)[C@H](O)[C@@H](O)[C@@H](C)[C@H]1CC[C@H]2[C@@H]3COC(=O)[C@H]4C[C@H](O)[C@H](O)C[C@]4(C)[C@H]3CC[C@]12C", "note": "[Compound 1, (22S,23S,24S)-2α,3α,22,23-tetrahydroxy-24 ethyl-β-homo-7-oxo-5α-cholestane-6-one]", "values": [{"measurement": "binding to androgen receptor", "result": "no significant binding"}]}
